In the supplement of paper PMC10307832:

Columns and labels:
Assay in all cases: relative viability (nuclei count vs DMSO), 5 days (fraction); higher = more cells survive
NCI-H1755 = system: NCI-H1755
Procedure, shortened: (§1)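 Lung cancer cell lines in 1536-well plates were dosed by pin tool the day after seeding, either with one drug alone or with a fixed anchor-drug dose plus five library-drug doses (not always all listed) in √10 steps. After 5 days, cells were fixed and their nuclei stained in one step (final 0.05% Triton X-100, 1% formaldehyde, 1 ug/ml Hoechst), then counted on 4× images. Relative viability is the nuclei count in treated wells divided by that in vehicle wells. Values are medians of duplicate plates.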

NCI-H1734 = system: NCI-H1734
Procedure, shortened: as §1

NCI-H1793 = system: NCI-H1793
Procedure, shortened: as §1

PC-3 [JPC-3] = system: PC-3 [JPC-3]
Procedure, shortened: as §1

NCI-H1944 = system: NCI-H1944
Procedure, shortened: as §1

NCI-H2228 = system: NCI-H2228
Procedure, shortened: as §1

UMC-11 = system: UMC-11
Procedure, shortened: as §1

EPLC-272H = system: EPLC-272H
Procedure, shortened: as §1

NCI-H1651 = system: NCI-H1651
Procedure, shortened: as §1

NCI-H2405 = system: NCI-H2405
Procedure, shortened: as §1

NCI-H1395 = system: NCI-H1395
Procedure, shortened: as §1

NCI-H2087 = system: NCI-H2087
Procedure, shortened: as §1

ChaGo-K-1 = system: ChaGo-K-1
Procedure, shortened: as §1

HCC-366 = system: HCC-366
Procedure, shortened: as §1

LU99A = system: LU99A
Procedure, shortened: as §1

LC-2-ad = system: LC-2-ad
Procedure, shortened: as §1

NCI-H3122 = system: NCI-H3122
Procedure, shortened: as §1

NCI-H2170 = system: NCI-H2170
Procedure, shortened: as §1

RERF-LC-KJ = system: RERF-LC-KJ
Procedure, shortened: as §1

LOU-NH91 = system: LOU-NH91
Procedure, shortened: as §1

CAL-12T = system: CAL-12T
Procedure, shortened: as §1

ABC-1 = system: ABC-1
Procedure, shortened: as §1

HCC-78 = system: HCC-78
Procedure, shortened: as §1

NCI-H460 = system: NCI-H460
Procedure, shortened: as §1

## C[C@@H]1CN(CC(=O)Nc2ccc3c(c2)Cc2cccc(-c4cc(=O)cc(N5CCOCC5)o4)c2S3)C[C@H](C)O1 + COc1cccc2cc(-c3nc([C@H]4CC[C@H](C(=O)O)CC4)n4ncnc(N)c34)[nH]c12 [OSI-027] (partner 0.5 µM)
NCI-H1755; first compound 0.04 µM
  relative viability: 0.697
NCI-H1755; first compound 0.1265 µM
  relative viability: 0.651
NCI-H1755; first compound 0.4 µM
  relative viability: 0.668
NCI-H1755; first compound 4 µM
  relative viability: 0.578
NCI-H1734; first compound 0.04 µM
  relative viability: 0.655
NCI-H1734; first compound 0.1265 µM
  relative viability: 0.598
NCI-H1734; first compound 0.4 µM
  relative viability: 0.48
NCI-H1734; first compound 4 µM
  relative viability: 0.67
NCI-H1793; first compound 0.04 µM
  relative viability: 0.256
NCI-H1793; first compound 0.1265 µM
  relative viability: 0.272
NCI-H1793; first compound 0.4 µM
  relative viability: 0.247
NCI-H1793; first compound 4 µM
  relative viability: 0.149
PC-3 [JPC-3]; first compound 0.04 µM
  relative viability: 0.81
PC-3 [JPC-3]; first compound 0.1265 µM
  relative viability: 0.815
PC-3 [JPC-3]; first compound 0.4 µM
  relative viability: 0.66
PC-3 [JPC-3]; first compound 4 µM
  relative viability: 0.577
NCI-H1944; first compound 0.04 µM
  relative viability: 0.386
NCI-H1944; first compound 0.1265 µM
  relative viability: 0.475
NCI-H1944; first compound 0.4 µM
  relative viability: 0.389
NCI-H1944; first compound 4 µM
  relative viability: 0.336
NCI-H2228; first compound 0.04 µM
  relative viability: 0.659
NCI-H2228; first compound 0.1265 µM
  relative viability: 0.705
NCI-H2228; first compound 0.4 µM
  relative viability: 0.483
NCI-H2228; first compound 4 µM
  relative viability: 0.335
UMC-11; first compound 0.04 µM
  relative viability: 0.51
UMC-11; first compound 0.1265 µM
  relative viability: 0.464
UMC-11; first compound 0.4 µM
  relative viability: 0.472
UMC-11; first compound 4 µM
  relative viability: 0.352
EPLC-272H; first compound 0.04 µM
  relative viability: 0.279
EPLC-272H; first compound 0.1265 µM
  relative viability: 0.334
EPLC-272H; first compound 0.4 µM
  relative viability: 0.301
EPLC-272H; first compound 4 µM
  relative viability: 0.304
NCI-H1651; first compound 0.04 µM
  relative viability: 0.694
NCI-H1651; first compound 0.1265 µM
  relative viability: 0.836
NCI-H1651; first compound 0.4 µM
  relative viability: 0.741
NCI-H1651; first compound 4 µM
  relative viability: 0.585
NCI-H2405; first compound 0.04 µM
  relative viability: 0.632
NCI-H2405; first compound 0.1265 µM
  relative viability: 0.699
NCI-H2405; first compound 0.4 µM
  relative viability: 0.528
NCI-H2405; first compound 4 µM
  relative viability: 0.615
NCI-H1395; first compound 0.04 µM
  relative viability: 0.782
NCI-H1395; first compound 0.1265 µM
  relative viability: 0.655
NCI-H1395; first compound 0.4 µM
  relative viability: 0.539
NCI-H1395; first compound 4 µM
  relative viability: 0.612
NCI-H2087; first compound 0.04 µM
  relative viability: 0.847
NCI-H2087; first compound 0.1265 µM
  relative viability: 0.521
NCI-H2087; first compound 0.4 µM
  relative viability: 0.463
NCI-H2087; first compound 4 µM
  relative viability: 0.457
ChaGo-K-1; first compound 0.04 µM
  relative viability: 0.525
ChaGo-K-1; first compound 0.1265 µM
  relative viability: 0.593
ChaGo-K-1; first compound 0.4 µM
  relative viability: 0.531
ChaGo-K-1; first compound 4 µM
  relative viability: 0.533
HCC-366; first compound 0.04 µM
  relative viability: 1.04
HCC-366; first compound 0.1265 µM
  relative viability: 0.867
HCC-366; first compound 0.4 µM
  relative viability: 0.648
HCC-366; first compound 4 µM
  relative viability: 0.502
LU99A; first compound 0.04 µM
  relative viability: 0.282
LU99A; first compound 0.1265 µM
  relative viability: 0.34
LU99A; first compound 0.4 µM
  relative viability: 0.299
LU99A; first compound 4 µM
  relative viability: 0.374
LC-2-ad; first compound 0.04 µM
  relative viability: 0.984
LC-2-ad; first compound 0.1265 µM
  relative viability: 0.923
LC-2-ad; first compound 0.4 µM
  relative viability: 0.649
LC-2-ad; first compound 4 µM
  relative viability: 0.656
NCI-H3122; first compound 0.04 µM
  relative viability: 0.994
NCI-H3122; first compound 0.1265 µM
  relative viability: 0.901
NCI-H3122; first compound 0.4 µM
  relative viability: 0.206
NCI-H3122; first compound 4 µM
  relative viability: 0.668
NCI-H2170; first compound 0.04 µM
  relative viability: 0.712
NCI-H2170; first compound 0.1265 µM
  relative viability: 0.685
NCI-H2170; first compound 0.4 µM
  relative viability: 0.581
NCI-H2170; first compound 4 µM
  relative viability: 0.707
RERF-LC-KJ; first compound 0.04 µM
  relative viability: 0.757
RERF-LC-KJ; first compound 0.1265 µM
  relative viability: 0.583
RERF-LC-KJ; first compound 0.4 µM
  relative viability: 0.534
RERF-LC-KJ; first compound 4 µM
  relative viability: 0.49
LOU-NH91; first compound 0.04 µM
  relative viability: 0.746
LOU-NH91; first compound 0.1265 µM
  relative viability: 0.711
LOU-NH91; first compound 0.4 µM
  relative viability: 0.724
LOU-NH91; first compound 4 µM
  relative viability: 0.7
CAL-12T; first compound 0.04 µM
  relative viability: 0.734
CAL-12T; first compound 0.1265 µM
  relative viability: 0.675
CAL-12T; first compound 0.4 µM
  relative viability: 0.561
CAL-12T; first compound 4 µM
  relative viability: 0.237
ABC-1; first compound 0.1265 µM
  relative viability: 0.541
ABC-1; first compound 0.4 µM
  relative viability: 0.466
ABC-1; first compound 4 µM
  relative viability: 0.439
HCC-78; first compound 0.04 µM
  relative viability: 0.372
HCC-78; first compound 0.1265 µM
  relative viability: 0.358
HCC-78; first compound 0.4 µM
  relative viability: 0.365
HCC-78; first compound 4 µM
  relative viability: 0.384
NCI-H460; first compound 0.04 µM
  relative viability: 0.662
NCI-H460; first compound 0.1265 µM
  relative viability: 0.674
NCI-H460; first compound 0.4 µM
  relative viability: 0.587
NCI-H460; first compound 4 µM
  relative viability: 0.253
